The text below walks through data of patent publication US20240148821A1, “PHARMACEUTICAL USE OF CYCLIC PEPTIDE COMPOUND” (CHUGAI SEIYAKU KABUSHIKI KAISHA, priority 2021, published 2024).

Each structure is given as a SMILES string. Numbered stars: 1 amine (or outer) side, 2 acyl side, 3 side chain; on linkers, the order of the positions; unused ones are H or OH. Bridge positions count the residues as written; N and C are the ends. Square brackets hold non-standard residues; d marks the D form. Peptide text beside a SMILES is read from it. * marks the point of attachment. hPhe(3,5-F2-4-CF3) = N[C@@H](CCc1cc(F)c(C(F)(F)F)c(F)c1)C(=O)O; hPhe(3-Cl-4-CF3) = N[C@@H](CCc1ccc(C(F)(F)F)c(Cl)c1)C(=O)O; hPhe(3-F,4-CF3) = N[C@@H](CCc1ccc(C(F)(F)F)c(F)c1)C(=O)O; NEtPhe(4-CF3) = CCN[C@@H](Cc1ccc(C(F)(F)F)cc1)C(=O)O; NMePhe(4-CF3) = CN[C@@H](Cc1ccc(C(F)(F)F)cc1)C(=O)O; 3Oxa8azabicyclo(3.2.1)octane = C1CC2COCC1N2*; NMedβ3hAla = C[C@H](CC(=O)[*:2])N(C)[*:1]; Pro(4,4-F2) = O=C(O)[C@@H]1CC(F)(F)CN1; NMeGly(cBu) = CN[C@H](C(=O)O)C1CCC1; NMeCha = CN[C@@H](CC1CCCCC1)C(=O)O; Hyp = O=C(O)[C@@H]1C[C@@H](O)CN1; NMeChg = CN[C@H](C(=O)O)C1CCCCC1; NMeI = CC[C@H](C)[C@H](NC)C(=O)O; X12 = O=C(CN(CC1COC1)[*:1])[*:2]; NMeD = CN[C@@H](CC(=O)O)C(=O)O; NMeL = CN[C@@H](CC(C)C)C(=O)O; NMeV = CN[C@H](C(=O)O)C(C)C; d(β3hA) = C[C@@H](N)CC(=O)O; NMeS = CN[C@@H](CO)C(=O)O; NMeA = CN[C@@H](C)C(=O)O; Piperidide = C1CCN(*)CC1; Ac5c = NC1(C(=O)O)CCCC1; Aze = O=C(O)[C@@H]1CCN1; Ac4c = NC1(C(=O)O)CCC1; Cyclopropyl = C1CC1*; X9 = c1cncc(C*)c1; Sar = CNCC(=O)O; Propyl = CCC*

A word on the IC50: it is the concentration at which inhibition is half-maximal.

For the assay, the target named is protein-protein interaction between Kras and SOS1 (biotin-tagged human Kras loaded with GDP, His-tagged human SOS1) (Homo sapiens (Human), UniProt P01116, G12D). As to the kind of experiment: Protein-protein interaction inhibition between Kras and SOS1 (KrasG12D-SOS PPI) using AlphaScreen.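 Also: kras produced in E. coli, Ni-coupled donor beads and streptavidin acceptor beads, excitation 680 nm with emission detected at 520–620 nm via singlet oxygen transfer.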 Type of assay: biochemical. The following applies: AlphaScreen; biotin-tagged human Kras loaded with GDP, His-tagged human SOS1; read-out: KRAS G12D-SOS PPI IC50. Background: Bead proximity is the source of the signal in Alpha formats.
On to `CC[C@H](C)[C@@H]1NC(=O)[C@H](CC(C)C)N(C)C(=O)C[C@@H](C)N(C)C(=O)[C@H](C2CCCCC2)N(C)C(=O)C2(CCC2)NC(=O)[C@@H]2CC(F)(F)CN2C(=O)[C@H](CCc2cc(F)c(C(F)(F)F)c(F)c2)NC(=O)CN(C)C(=O)[C@H](Cc2ccc(C(F)(F)F)cc2)N(C)C(=O)[C@@H]2CCN2C(=O)[C@H](C)N(C)C1=O` [Compound 34] (cyclo([Ac4c][NMeChg][NMedβ3hAla][NMeL]I[NMeA][Aze][NMePhe(4-CF3)][Sar][hPhe(3,5-F2-4-CF3)][Pro(4,4-F2)])), for which the half-maximal inhibitory concentration (IC50) worked out at 74 nM.

For `CC[C@H](C)[C@@H]1NC(=O)[C@H]([C@@H](C)CC)N(C)C(=O)C[C@@H](C(=O)N2CCCCC2)N(C)C(=O)[C@H](C(C)C)N(C)C(=O)C2(CCCC2)NC(=O)[C@@H]2CCCN2C(=O)[C@H](CCc2ccc(C(F)(F)F)c(Cl)c2)NC(=O)CN(C)C(=O)[C@H](CC2CCCCC2)N(C)C(=O)[C@@H]2CCN2C(=O)[C@H](C)N(C)C1=O` [Compound 1863] ([NMeI]I[NMeA][Aze][NMeCha][Sar][hPhe(3-Cl-4-CF3)]P[Ac5c][NMeV][NMeD]-Piperidide; lactam N-11), the concentration for half-maximal inhibition (IC50) came to 10 nM.

Turning to `CCCOC[C@H]1C(=O)N(C)CC(=O)N[C@@H](CCc2ccc(C(F)(F)F)c(F)c2)C(=O)N2CCC[C@H]2C(=O)NC2(CCCC2)C(=O)N(C)[C@@H]([C@@H](C)CC)C(=O)N(C)[C@H](C(=O)N2C3CCC2COC3)CC(=O)N(C)[C@@H](CC(C)C)C(=O)N[C@@H]([C@@H](C)CC)C(=O)N(C)[C@@H](C)C(=O)N2CC[C@H]2C(=O)N1C` [Compound 408] ([NMeL]I[NMeA][Aze][NMeS](Propyl)[Sar][hPhe(3-F,4-CF3)]P[Ac5c][NMeI][NMeD]-{3Oxa8azabicyclo(3.2.1)octane}; lactam N-11), the IC50 is 11 nM.

For `CC[C@H](C)[C@@H]1NC(=O)[C@H](CC(C)C)N(C)C(=O)C[C@@H](C)N(C)C(=O)[C@H](C2CCCCC2)N(C)C(=O)C2(CCC2)NC(=O)[C@@H]2CC(F)(F)CN2C(=O)[C@H](CCc2ccc(C(F)(F)F)c(Cl)c2)NC(=O)CN(C)C(=O)[C@H](Cc2ccc(C(F)(F)F)cc2)N(CC)C(=O)[C@@H]2CCN2C(=O)[C@H](C)NC1=O` [Compound 138] (cyclo(A[Aze][NEtPhe(4-CF3)][Sar][hPhe(3-Cl-4-CF3)][Pro(4,4-F2)][Ac4c][NMeChg][NMedβ3hAla][NMeL]I)), the 50% inhibitory concentration (IC50) came to 44 nM.

`CC[C@H](C)[C@@H]1NC(=O)[C@H](CC(C)C)N(C)C(=O)C[C@@H](C(=O)N2CCCCC2)N(C)C(=O)[C@H](C2CCCCC2)N(C)C(=O)C2(CCCC2)NC(=O)[C@@H]2C[C@@H](OCc3cccnc3)CN2C(=O)[C@H](CCc2ccc(C(F)(F)F)c(Cl)c2)NC(=O)CN(C)C(=O)[C@H](CC2CCCCC2)N(C)C(=O)CN(C)C(=O)CN(C)C1=O` [Compound 2121] ([NMeL]I[Sar][Sar][NMeCha][Sar][hPhe(3-Cl-4-CF3)][Hyp](X9)[Ac5c][NMeChg][NMeD]-Piperidide; lactam N-11): the IC50 was 0.56 nM.

Regarding `CC[C@H](C)[C@@H]1NC(=O)[C@H](CC(C)C)N(C)C(=O)C[C@@H](C(=O)N2CCCCC2)N(C)C(=O)[C@H](C2CCCCC2)N(C)C(=O)C2(CCCC2)NC(=O)CN(CC2COC2)C(=O)[C@H](CCc2ccc(C(F)(F)F)c(Cl)c2)NC(=O)CN(C)C(=O)[C@H](CC2CCCCC2)N(C)C(=O)CN(C)C(=O)CN(C)C1=O` [Compound 2031] ([NMeL]I[Sar][Sar][NMeCha][Sar][hPhe(3-Cl-4-CF3)][X12][Ac5c][NMeChg][NMeD]-Piperidide; lactam N-11 (inferred); C-terminus assumed), the IC50 turned out to be 0.82 nM.

In the case of `CC[C@H](C)[C@@H]1NC(=O)[C@H](CC(C)C)N(C)C(=O)C[C@@H](C(=O)N2CCCCC2)N(C)C(=O)[C@H](C(C)C)N(C)C(=O)C2(CCCC2)NC(=O)[C@@H]2CCCN2C(=O)[C@H](CCc2ccc(C(F)(F)F)c(Cl)c2)NC(=O)CN(C)C(=O)[C@H](CC2CCCCC2)N(C)C(=O)[C@@H]2CCN2C(=O)[C@H](C2CCC2)N(C)C1=O` [Compound 1554] ([NMeL]I[NMeGly(cBu)][Aze][NMeCha][Sar][hPhe(3-Cl-4-CF3)]P[Ac5c][NMeV][NMeD]-Piperidide; lactam N-11), the IC50 turned out to be 200 nM.

Take `CC[C@H](C)[C@@H]1NC(=O)[C@H](CC(C)C)N(C)C(=O)C[C@@H](C)NC(=O)[C@H](C(C)C)N(C)C(=O)C2(CCCC2)NC(=O)[C@@H]2CCCN2C(=O)[C@H](CCc2ccc(C(F)(F)F)c(Cl)c2)NC(=O)CN(C)C(=O)[C@H](CC2CCCCC2)N(C)C(=O)[C@@H]2CCN2C(=O)[C@H](COC2CC2)N(C)C1=O` [Compound 1102] (cyclo([Ac5c][NMeV][d(β3hA)][NMeL]I[NMeS](Cyclopropyl)[Aze][NMeCha][Sar][hPhe(3-Cl-4-CF3)]P)): the half-maximal inhibitory concentration (IC50) came out at 160 nM.
